Laboratory results as given in ChEMBL document CHEMBL1201862, “PubChem BioAssay data set” (2004).
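Interpolation was linear, between the two tested concentrations surrounding the appropriate level; five concentrations were tested over 48 hours in 96-well plates. GI50 = concentration required for 50% inhibition of growth.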 Active and inactive are the calls of the source. No stated cut-off is given here; in the data, active = GI50 up to about 1.1 µM and inactive = higher.

Assays:
Assay in all cases: inhibition of tumour cell growth, NCI panel, 48 h
SF-295 = system: SF-295
Malme-3M = system: Malme-3M
UACC-62 = system: UACC-62
SK-MEL-2 = system: SK-MEL-2
CAKI-1 = system: CAKI-1
HCC 2998 = system: HCC 2998
CCRF-CEM = system: CCRF-CEM
SNB-78 = system: SNB-78
LXFL 529 = system: LXFL 529
XF498 = system: XF498
OVCAR-8 = system: OVCAR-8
SK-MEL-28 = system: SK-MEL-28
HT-29 = system: HT-29
OVCAR-5 = system: OVCAR-5
SNB-19 = system: SNB-19
KM-20L2 = system: KM-20L2
UO-31 = system: UO-31
IGROV-1 = system: IGROV-1
NCI-H522 = system: NCI-H522
M14 = system: M14
SW-620 = system: SW-620
MOLT-4 = system: MOLT-4
K562 = system: K562
RXF 393 = system: RXF 393
COLO 205 = system: COLO 205
U-251 = system: U-251
SK-OV-3 = system: SK-OV-3
OVCAR-4 = system: OVCAR-4
HOP-92 = system: HOP-92
M19-MEL = system: M19-MEL
SR = system: SR
KM12 = system: KM12
SK-MEL-5 = system: SK-MEL-5
NCI-H23 = system: NCI-H23
DMS-114 = system: DMS-114
TK-10 = system: TK-10
HCT-15 = system: HCT-15
DLD-1 = system: DLD-1
OVCAR-3 = system: OVCAR-3
SN12C = system: SN12C

With `COc1cc(/C=C(\NC(=O)c2ccccc2)c2nc3cc([N+](=O)[O-])ccc3[nH]2)cc(OC)c1OC` the GI50 (SF-295) was > 100 µM (inactive), the GI50 (Malme-3M) was > 100 µM (inactive) and the GI50 (UACC-62) was > 100 µM (inactive). The GI50 (SK-MEL-2) was > 100 µM (inactive), the GI50 (CAKI-1) was 68.5 µM (inactive) and the GI50 (HCC 2998) was > 100 µM (inactive). The GI50 (CCRF-CEM) was 35.9 µM (inactive), the GI50 (SNB-78) was > 100 µM (inactive) and the GI50 (LXFL 529) was 35.4 µM (inactive). The GI50 (XF498) was > 100 µM (inactive), the GI50 (OVCAR-8) was 96.4 µM (inactive) and the GI50 (SK-MEL-28) was > 100 µM (inactive). For the same compound, the GI50 (HT-29) was > 100 µM (inactive), the GI50 (OVCAR-5) was > 100 µM (inactive) and the GI50 (SNB-19) was > 100 µM (inactive). For the same compound, the GI50 (KM-20L2) was 78.7 µM (inactive), the GI50 (UO-31) was 23.1 µM (inactive) and the GI50 (IGROV-1) was > 100 µM (inactive). The GI50 (NCI-H522) was 30.2 µM (inactive), the GI50 (M14) was > 100 µM (inactive) and the GI50 (SW-620) was 76.7 µM (inactive). The GI50 (MOLT-4) was 29 µM (inactive), the GI50 (K562) was 34.3 µM (inactive) and the GI50 (RXF 393) was > 100 µM (inactive). For the same compound, the GI50 (COLO 205) was > 100 µM (inactive), the GI50 (U-251) was > 100 µM (inactive) and the GI50 (SK-OV-3) was 78.3 µM (inactive). For the same compound, the GI50 (OVCAR-4) was 38.5 µM (inactive), the GI50 (HOP-92) was 57 µM (inactive) and the GI50 (M19-MEL) was > 100 µM (inactive). For the same compound, the GI50 (SR) was 42.2 µM (inactive), the GI50 (KM12) was 84.5 µM (inactive) and the GI50 (SK-MEL-5) was 96.6 µM (inactive). For the same compound, the GI50 (NCI-H23) was > 100 µM (inactive), the GI50 (DMS-114) was 57.9 µM (inactive) and the GI50 (TK-10) was > 100 µM (inactive). The GI50 (HCT-15) was 40 µM, the GI50 (DLD-1) was 57.3 µM (inactive) and the GI50 (OVCAR-3) was > 100 µM (inactive). The GI50 (SN12C) was > 100 µM (inactive).
